Measurements as given in article PMC8296573, “Synthesis and Biological Evaluation of Fingolimod Derivatives as Antibacterial Agents” (ACS Omega, 2021).
Values after ≈ are worked out from the molar mass of the structure shown. Read-outs that look alike come from different tables or passages of the source.

How the values were obtained:
P. aeruginosa ATCC 9027 = experiment: Antibacterial activity, pre-exposure; assay type: cell-based, Pseudomonas aeruginosa; details: for Average inhibition %, biofilms viability / Average inhibition %, planktonic cells viability / inhibition at 50 µM / inhibition at 100 µM / inhibition at 150 µM / inhibition at 200 µM: P. aeruginosa ATCC 9027, pre-exposure, ± SD; for inhibition at 50 µM / inhibition at 100 µM / inhibition at 150 µM / inhibition at 200 µM: Pseudomonas aeruginosa, ATCC9027
Procedure: (§1) The antimicrobial activity was assessed in a similar way for the initial screening and the dose–response evaluation against different bacterial strains. With the exception of the post-exposure experiment, the compounds were added to the wells along with the bacteria to test the ability of compounds to prevent bacterial growth and biofilm formation (pre-exposure). The compounds were diluted in DMSO and plated directly in 96-well plates before adding the bacterial culture, and plates were incubated for 18 h under aerobic conditions at 37 °C with shaking (220 rpm). The antibacterial activity of the compounds was assessed on planktonic cells and biofilms separately using two different measurements for each: optical density (turbidity) and resazurin reduction (viability) on planktonic cells and resazurin followed by a crystal violet staining assay (total biomass) on biofilms, as described in the following sections.
(§2) The resazurin staining was performed according to the protocol previously optimized with a few modifications.[46] Briefly, the planktonic solution was first transferred into a new 96-well plate and the OD of the planktonic solution was measured using a Varioskan LUX Multimode microplate reader (Thermo Scientific, Vantaa, Finland). Then, 10 μL of a 400 μM resazurin (R7017, Sigma-Aldrich, St. Louis, MO) diluted in phosphate-buffered saline (PBS) (Thermo Fisher Scientific, MA) was added to the wells (for a final resazurin concentration of 20 μM). The plate was incubated in the dark with shaking (220 rpm) for about 3–10 min at room temperature with S. aureus and A. baumannii (until the bacteria controls turned pink) or for 20 min at 37 °C with P. aeruginosa. Fluorescence was measured at λex = 560 nm and λem = 590 nm using the top optics of the Varioskan LUX Multimode microplate reader. The planktonic plate was then discarded. The original challenge plate containing the biofilms was washed once with PBS, and 200 μL of a 20 μM resazurin solution was added to the wells. The plate was incubated in the dark at 37 °C with shaking (220 rpm) for 30 min with S. aureus, 60 min with A. baumannii, and 90 min with P. aeruginosa. Fluorescence was measured as described for the planktonic solution. The biofilms were next treated with crystal violet staining.
(§3) After removing the resazurin solution from the plate, biofilms were fixed with ethanol 100% for 15 min at room temperature. Ethanol was then removed, and the biofilms were left to air-dry completely at RT. Crystal violet, diluted to 1:100 in deionized water from the 2.3% commercial solution (HT90132, Sigma-Aldrich, St. Louis, MO), was added to the wells and, after a 5 min incubation with the dye, the biofilms were washed twice with deionized water and left to air-dry for about 10 min. The dye was solubilized in ethanol 100% for 1 h, and absorbance was measured at 595 nm using a Multiskan Sky microplate spectrophotometer (Thermo Scientific, Vantaa, Finland).

A. baumannii NCTC 13423 = experiment: Antibacterial activity, pre-exposure; assay type: cell-based, Acinetobacter baumannii; details: for Average inhibition %, biofilms viability / Average inhibition %, planktonic cells viability / inhibition at 10 µM / inhibition at 15 µM / inhibition at 25 µM / inhibition at 50 µM: A. baumannii NCTC 13423, pre-exposure, ± SD; for inhibition at 10 µM / inhibition at 15 µM / inhibition at 25 µM / inhibition at 50 µM: Acinetobacter baumannii, NCTC13423
Procedure: as §1, §2, §3

S. aureus ATCC 25923 [1] = experiment: Antibacterial activity, pre-exposure (planktonic cells and biofilm formation); assay type: cell-based, Staphylococcus aureus; details: for MIC / inhibition at 5 µM / inhibition at 10 µM / inhibition at 15 µM / inhibition at 25 µM: Staphylococcus aureus, ATCC25923; for inhibition at 5 µM / inhibition at 10 µM / inhibition at 15 µM / inhibition at 25 µM / Average inhibition %, biofilms viability / Average inhibition %, planktonic cells viability: pre-exposure, ± SD
Outline: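 Growth prevention was tested by adding compounds together with the inoculum. Plates were incubated 18 h at 37 °C. Viability was read by resazurin fluorescence and biomass by crystal violet absorbance at 595 nm.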

S. aureus ATCC 25923 [2] = experiment: Antibacterial activity, post-exposure on preformed 18-h-old biofilms; assay type: cell-based, Staphylococcus aureus; details: ± SD; for inhibition at 25 µM / inhibition at 50 µM / inhibition at 100 µM / inhibition at 200 µM: Staphylococcus aureus; for inhibition at 25 µM: ATCC25923, 25 µM; for inhibition at 50 µM: ATCC25923, 50 µM; for inhibition at 100 µM: ATCC25923, 100 µM; for inhibition at 200 µM: ATCC25923, 200 µM
Procedure: For the post-exposure experiment, bacteria were grown with no compounds in the same conditions for 18 h, after which the media was changed, and compounds were added on the preformed biofilms. The plates were then incubated in the same conditions for an additional 24 h before proceeding to the staining assays.
as §2, §3

[3] = 50 µM, read-out: Average inhibition %, biofilms biomass
[4] = 50 µM, read-out: Average inhibition %, planktonic cells turbidity
[5] = 10 µM, read-out: Average inhibition %, biofilms biomass
[6] = 10 µM, read-out: Average inhibition %, planktonic cells turbidity
[7] = 15 µM, read-out: Average inhibition %, biofilms biomass
[8] = 15 µM, read-out: Average inhibition %, planktonic cells turbidity
[9] = 25 µM, read-out: Average inhibition %, biofilms biomass
[10] = 25 µM, read-out: Average inhibition %, planktonic cells turbidity
[11] = read-out: Average inhibition %, biofilms biomass
[12] = read-out: Average inhibition %, planktonic cells turbidity

## CCCCCc1ccc(-c2ccc(CCC(N)(CO)CO)cc2)cc1 [Compound 15, 2-Amino-2-[2-(4′-pentyl-[1,1′-biphenyl]-4-yl)ethyl]propane-1,3-diol]
P. aeruginosa ATCC 9027; 50 µM
  Average inhibition %, biofilms viability: 0 ± 0%
  Average inhibition %, planktonic cells viability: 22.3 ± 2%
P. aeruginosa ATCC 9027; 100 µM
  Average inhibition %, biofilms viability: 0 ± 0%
  Average inhibition %, planktonic cells viability: 12 ± 14%
P. aeruginosa ATCC 9027; 150 µM
  Average inhibition %, biofilms viability: 0.5 ± 0.8%
  Average inhibition %, planktonic cells viability: 5.5 ± 6.3%
P. aeruginosa ATCC 9027; 200 µM
  Average inhibition %, biofilms viability: 0 ± 0%
  Average inhibition %, planktonic cells viability: 7.2 ± 6.3%
P. aeruginosa ATCC 9027; [3]
  inhibition at 50 µM: 2.2 ± 2.2%
P. aeruginosa ATCC 9027; [4]
  inhibition at 50 µM: 12.6 ± 9.1%
P. aeruginosa ATCC 9027; 100 µM, read-out: Average inhibition %, biofilms biomass
  inhibition at 100 µM: 3.7 ± 3%
P. aeruginosa ATCC 9027; 100 µM, read-out: Average inhibition %, planktonic cells turbidity
  inhibition at 100 µM: 11.3 ± 12.7%
P. aeruginosa ATCC 9027; 150 µM, read-out: Average inhibition %, biofilms biomass
  inhibition at 150 µM: 4.4 ± 1.9%
P. aeruginosa ATCC 9027; 150 µM, read-out: Average inhibition %, planktonic cells turbidity
  inhibition at 150 µM: 15.7 ± 13.7%
P. aeruginosa ATCC 9027; 200 µM, read-out: Average inhibition %, biofilms biomass
  inhibition at 200 µM: 12 ± 10.7%
P. aeruginosa ATCC 9027; 200 µM, read-out: Average inhibition %, planktonic cells turbidity
  inhibition at 200 µM: 13.7 ± 14.3%
P. aeruginosa ATCC 9027; pre-exposure, Inactive = no activity up to 200 μM, > = some inhibition but no MIC reached
  MIC P. aeruginosa ATCC 9027: Inactive
A. baumannii NCTC 13423; 10 µM
  Average inhibition %, biofilms viability: 0 ± 0%
  Average inhibition %, planktonic cells viability: 11 ± 1.5%
A. baumannii NCTC 13423; 15 µM
  Average inhibition %, biofilms viability: 1 ± 1.5%
  Average inhibition %, planktonic cells viability: 8.7 ± 2.5%
A. baumannii NCTC 13423; 25 µM
  Average inhibition %, biofilms viability: 2.8 ± 2.6%
  Average inhibition %, planktonic cells viability: 7.8 ± 6.9%
A. baumannii NCTC 13423; 50 µM
  Average inhibition %, biofilms viability: 7.1 ± 0.8%
  Average inhibition %, planktonic cells viability: 0 ± 0%
A. baumannii NCTC 13423; [5]
  inhibition at 10 µM: 0%
A. baumannii NCTC 13423; [6]
  inhibition at 10 µM: 0%
A. baumannii NCTC 13423; [7]
  inhibition at 15 µM: 0.8 ± 1.4%
A. baumannii NCTC 13423; [8]
  inhibition at 15 µM: 0%
A. baumannii NCTC 13423; [9]
  inhibition at 25 µM: 0%
A. baumannii NCTC 13423; [10]
  inhibition at 25 µM: 0%
A. baumannii NCTC 13423; [3]
  inhibition at 50 µM: 4.8 ± 4.9%
A. baumannii NCTC 13423; [4]
  inhibition at 50 µM: 0%
A. baumannii NCTC 13423; pre-exposure, Inactive = no activity up to 50 μM, > = some inhibition but no MIC reached
  MIC A. baumannii NCTC 13423: Inactive
S. aureus ATCC 25923 [1]; 50 μM, S. aureus
  Initial screening result (active = at least 60% inhibition of planktonic cells and biofilm formation): active
S. aureus ATCC 25923 [1]; lowest concentration with no visible growth (>90% inhibition of turbidity and viability of planktonic cells), 18 h, read-out: MIC S. aureus ATCC 25923
  MIC: 25 to 100 µM (≈ 8.54 to 34.1 µg/mL)
S. aureus ATCC 25923 [1]; 5 µM, read-out: Average inhibition %, biofilms biomass
  inhibition at 5 µM: 44.4 ± 15%
S. aureus ATCC 25923 [1]; 5 µM, read-out: Average inhibition %, planktonic cells turbidity
  inhibition at 5 µM: 44.9 ± 12.3%
S. aureus ATCC 25923 [1]; [5]
  inhibition at 10 µM: 68.5 ± 20.6%
S. aureus ATCC 25923 [1]; [6]
  inhibition at 10 µM: 70.3 ± 19.8%
S. aureus ATCC 25923 [1]; [7]
  inhibition at 15 µM: 75.8 ± 18.7%
S. aureus ATCC 25923 [1]; [8]
  inhibition at 15 µM: 72.5 ± 23.2%
S. aureus ATCC 25923 [1]; [9]
  inhibition at 25 µM: 70.7 ± 26.8%
S. aureus ATCC 25923 [1]; [10]
  inhibition at 25 µM: 76.5 ± 19.4%
S. aureus ATCC 25923 [1]; read-out: MIC (S. aureus)
  MIC: 25 to 100 µM (≈ 8.54 to 34.1 µg/mL)
S. aureus ATCC 25923 [1]; 5 µM
  Average inhibition %, biofilms viability: 42.5 ± 7.6%
  Average inhibition %, planktonic cells viability: 2.6 ± 4.5%
S. aureus ATCC 25923 [1]; 10 µM
  Average inhibition %, biofilms viability: 71.3 ± 19.4%
  Average inhibition %, planktonic cells viability: 50.9 ± 46%
S. aureus ATCC 25923 [1]; 15 µM
  Average inhibition %, biofilms viability: 70.4 ± 24.5%
  Average inhibition %, planktonic cells viability: 33.2 ± 57.6%
S. aureus ATCC 25923 [1]; 25 µM
  Average inhibition %, biofilms viability: 79.3 ± 18.7%
  Average inhibition %, planktonic cells viability: 33.1 ± 57.3%
S. aureus ATCC 25923 [2]; 25 µM
  Average inhibition %, biofilms viability: 19 ± 6.6%
  Average inhibition %, planktonic cells viability: 3.6 ± 6.3%
S. aureus ATCC 25923 [2]; 50 µM
  Average inhibition %, biofilms viability: 30.8 ± 8.5%
  Average inhibition %, planktonic cells viability: 1.2 ± 2.1%
S. aureus ATCC 25923 [2]; 100 µM
  Average inhibition %, biofilms viability: 31.9 ± 6.2%
  Average inhibition %, planktonic cells viability: 3.8 ± 6.6%
S. aureus ATCC 25923 [2]; 200 µM
  Average inhibition %, biofilms viability: 38.7 ± 13.3%
  Average inhibition %, planktonic cells viability: 29.1 ± 25.2%
S. aureus ATCC 25923 [2]; [11]
  inhibition at 25 µM: 34.9 ± 12.7%
  inhibition at 50 µM: 44.9 ± 6.2%
  inhibition at 100 µM: 43.6 ± 7.8%
  inhibition at 200 µM: 45.5 ± 18.5%
S. aureus ATCC 25923 [2]; [12]
  inhibition at 25 µM: 16.8 ± 10%
  inhibition at 50 µM: 14.7 ± 13.4%
  inhibition at 100 µM: 17.9 ± 1.1%
  inhibition at 200 µM: 47.4 ± 13.9%
